Assay: Stability of treated (extracted) human plasma samples of AST-2660 at 4° C. (LC-MS/MS)
Assay type: physicochemical
Conditions: stored for 54 hours at 4° C.
Protocol: The detection method established in example 4 was used to detect the content of AST-2660 in the human plasma to be tested.
Matrix: the mixed normal human plasma containing anticoagulant (K2 EDTA) • a: the internal standard working solution: AST-2660-D8 was taken, added with methanol, and diluted to prepare a solution containing about 100 ng per 1 ml. • b: the solution to be tested (no internal standard compound was added to the solution to be tested at this time): it was obtained by taking a blood sample to be tested. • c: the standard working solution (no internal standard compound was added to the standard working solution at this time): an appropriate amount of AST-2660 was taken and accurately weighed, dissolved with methanol, and diluted to prepare a solution containing about 1.0 mg per 1 ml, which was used as the standard working stock solution. […]
Calculation results: the relationship function y=f (x) of the ratio of the peak area of the AST-2660 to that of the internal standard was obtained from AST-2660 standard working solutions with different concentrations. The ratio of the peak area of the AST-2660 to that of the internal standard was determined from the solution to be tested after extraction, and substituted into the relationship function y=f (x) to calculate the concentration of the metabolite II in the solution to be tested.

Structure (SMILES): O=P([O-])(N1CC1)N1CC1.[Na+] [AST-2660]
- stability of content (in words): stable

— patent publication US20240140970A1, “A […], AND PREPARATION METHOD AND USE THEREOF” (ASCENTAWITS PHARMACEUTICALS, LTD., priority 2021, published 2024)
